What was measured:
[1] = system: acetic acid-induced writhing in mice; assay: Acetic acid-induced writhing; type: in vivo, mouse; conditions: for Effect upon acetic acid-induced writhing: 20 mg/kg, subcutaneous, 60 min before acetic acid
Experimental: Mice were acclimated to the laboratory environment for at least two hours and were habituated to the testing chamber for 30 min prior to acetic acid challenge. SBFI26, SBFI50, SBFI60, and SBFI62 (20 mg/kg) were administered via the subcutaneous route 60 min before acetic acid. Rimonabant, SR144528, GW6471, and naloxone were given 10 min before the inhibitors via the subcutaneous route. The mice subsequently received an i.p. injection of acetic acid (0.6% in sterile saline, 10 μl/g) and were placed in observation chambers. Abdominal stretches (marked by extension of the body and hind limbs) were counted for 20 min starting at 5 min post-injection.

[2] = system: formalin-induced nociception in mice; assay: Formalin test; type: in vivo, mouse; conditions: 20 mg/kg, i.p.; for Effect upon first phase of formalin-induced nociception: first phase 0–5 min
Experimental: Mice were habituated to the observation chamber (Plexiglas box, 25 cm×25 cm×25 cm) for 30 min prior to formalin injection. Mice were administered FABP inhibitors 60 min prior to formalin. The animals subsequently received an injection of formalin (2.5% in saline, 20 μl) into the plantar surface of the right hind paw using a 30 gauge needle and were immediately placed back into the observation chamber and nocifensive behavior (time spent licking or biting the paw) was recorded for 60 min. Nocifensive behavior was scored during the first phase (0–5 min) and the second phase (∼15–45 min) of the formalin test.

[3] = biological target: T1, FABP7 (Homo sapiens, UniProt O15540); assay: NBD-stearate fluorescence displacement binding
T1 sequence (O15540 whole entry, species assumed): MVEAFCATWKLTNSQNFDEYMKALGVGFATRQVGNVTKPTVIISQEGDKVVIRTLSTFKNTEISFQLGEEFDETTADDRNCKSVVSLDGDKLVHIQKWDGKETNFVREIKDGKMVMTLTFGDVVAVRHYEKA
Experimental: (§1) Inhibitory constant (Ki) values were elucidated utilizing NBD-stearate fluorescence displacement as described previously [9], [31]. The tests were performed in 96-well plates containing inhibitors (0.1 – 50.0 μM), FABP, and NBD-stearate. Fluorescence intensity was measured with a FLUOstar OPTIMA spectrofluorometer with excitation and emission wavelengths of 460 and 544 nm, respectively.

[4] = biological target: T2, FABP3 (Homo sapiens, UniProt P05413); assay: NBD-stearate fluorescence displacement binding
T2 sequence (P05413 whole entry, species assumed): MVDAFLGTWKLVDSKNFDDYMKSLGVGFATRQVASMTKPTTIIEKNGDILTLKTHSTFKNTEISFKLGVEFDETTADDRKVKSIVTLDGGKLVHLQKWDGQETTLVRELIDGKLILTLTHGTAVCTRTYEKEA
Experimental: as §1

[5] = system: carrageenan-induced thermal hyperalgesia and paw edema in mice; assay: Carrageenan-induced paw edema and thermal hyperalgesia; type: in vivo, mouse; conditions: 20 mg/kg, i.p.
Experimental: Paw edema was induced by injecting 1% λ-carrageenan (20 μl, in sterile saline) into the plantar surface of the left hind paw using a 30 gauge needle attached to a glass syringe (Hamilton Company). Paw diameters were measured before carrageenan injection and 4 or 24 hours after injection using digital electronic calipers (Fisher) and expressed to the nearest ± 0.01 mm. SBFI26, SBFI50, SBFI60, and SBFI62 were dissolved in DMSO:cremophor-EL:saline (4% DMSO:10% Cremophor-EL) and administered (20 mg/kg, i.p.) 60 min prior to injection of carrageenan. Receptor antagonists were injected 10 min before the inhibitors. Rimonabant and SR144528 (3 mg/kg, i.p.) were dissolved in ethanol:cremophor-EL:saline (1∶1∶18) while GW6471 (4 mg/kg, i.p.) was dissolved in DMSO:cremophor-EL:saline (2% DMSO:5% Cremophor-EL). Edema is reported as the change in paw diameter at 24 hr compared to the baseline. Thermal hyperalgesia was measured using the Hargreaves plantar apparatus (Ugo Basile) as previously reported.

[6] = biological target: T3, FABP5 (Homo sapiens, UniProt Q01469); assay: NBD-stearate fluorescence displacement binding; conditions: averages ± S.E. of three independent experiments
T3 sequence (Q01469 whole entry, species assumed): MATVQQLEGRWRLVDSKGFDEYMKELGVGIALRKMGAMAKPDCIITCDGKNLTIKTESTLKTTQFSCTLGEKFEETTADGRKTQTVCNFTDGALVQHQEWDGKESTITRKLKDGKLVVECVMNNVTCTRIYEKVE
Experimental: Inhibitory constant (Ki) values were elucidated utilizing NBD-stearate fluorescence displacement as described previously, [31]. The tests were performed in 96-well plates containing inhibitors (0.1 – 50.0 μM), FABP, and NBD-stearate. Fluorescence intensity was measured with a FLUOstar OPTIMA spectrofluorometer with excitation and emission wavelengths of 460 and 544 nm, respectively.

[7] = system: rats subjected to CCI; assay: Rat neuropathic pain model (chronic constriction injury of the sciatic nerve); type: in vivo; conditions: 20 mg/kg i.p.
Description: Male Fisher 344 rats were habituated and pre-injury evoked responses were obtained. The Hargreaves test was used to assess thermal hyperalgesia. Briefly, plexiglass enclosures were set atop a plexiglass platform and infrared source set at 50% power located under the platform was used as the heat stimulus (Ugo Basile). A 200 mW, 535 nm diode laser was mounted in an adjustable stand placed beneath the plexiglass platform, and was used as an alternative heat stimulus for some of the animals in this study. The latency time to hind paw lift during heating of the plantar surface was recorded. Five recordings were obtained on each hind paw with at least 2 min rest between measurements. The maximum time for exposure to the infrared or diode laser source was 30.5 s to avoid any possible tissue injury. For mechanical threshold measurements, the animal enclosures rested on a screen with mesh of 0.5 cm spacing. Following acclimation, an electronic von Frey Anesthesiometer (IITC Life Sciences) was applied with increasing pressure to the plantar surface of the hind paw until the animals lifted the hind paw. The number of grams of force applied by the probe to induce withdrawal was recorded. Five recordings were obtained on each hind paw with at least 3 min between measurements. For CCI surgeries, our procedure closely followed that reported previously. Briefly, each animal received an i.p. injection of ketamine/xylazine (75 mg/kg and 10 mg/kg, respectively). The hind leg was surgically prepped and the anesthetized animal placed prone on an sterile towel over a heating pad. The temperature was monitored rectally. A skin incision was made mid-thigh with a medium curved scalpel and then scissors were used to expose the sciatic nerve. Approximately 1 cm of the main trunk proximal to the trifuraction was isolated and 4 strands of 4-0 chromic gut were tied around the nerve ∼ 1 mm apart under magnification. In a modification of the original method, a 2-0 prolene strand was placed between the nerve and the gut to which the suture was tightened. The prolene strand was then removed. This prevented over tightening and reduced subsequent motor paralysis. The muscle layers were then reopposed and sutured, and surgical staples were used to close the skin. On post-injury days 7 through 10, heat and mechanical measurements were obained for the ipsilateral hindpaw of each CCI animal. Immediately following the post-injury measurements, animals were randomized and received i.p. injections of vehicle or 20 mg/kg SBI26 (DMSO:cremophor:sterile saline 1∶1∶2 by volume). Up to 0.8 ml of drug or vehicle was injected. The observer was blinded as to administration of drug or vehicle. Thermal and mechanical measurements were performed at 1 and 4 h post-injection. Data were normalized to pre-injury baseline measurements for each animal.

[8] = system: HeLa cells; assay: Cytotoxicity, MTT colorimetric assay; type: cell-based; conditions: 24 hr incubation, n = 3
Experimental: Cytotoxicity of the FABP inhibitors SBFI26 and BMS309403 were examined using the MTT [3-(4,5-dimethylthiazol-2-yl)-2,5 diphenyl tetrazolium bromide] colorimetric assay. HeLa cells were seeded into 96-well plates (15,000 cells/well) and incubated for 24 hours at 37°C in DMEM supplemented with 10% FBS, penicillin (100 U/mL) and streptomycin (100 μg/mL). The cells were subsequently washed with PBS and treated with serum-free DMEM containing 10 nM to 1 mM SBFI26, BMS309403, or 5 mM hydrogen peroxide as a positive control. Following a 24 hr incubation, the cells were washed with PBS and treated with MTT (0.5 mg/mL in PBS) for 4 hrs. The cells were subsequently solubilized using DMSO and the absorbance was read at 562 nm in a microplate reader.

[9] = biological target: T3, FABP5; set-up: method as in PMID 22170058; conditions: determined previously ref 9; cited from earlier work
[10] = biological target: T2, FABP3; set-up: method as in PMID 22170058; conditions: determined previously ref 9; cited from earlier work
[11] = biological target: T1, FABP7; set-up: method as in PMID 22170058; conditions: determined previously ref 9; cited from earlier work

SMILES	Ki [3] [nM]	Ki [4] [nM]	Ki [6] [nM]	Effect upon first phase of formalin-induced nociception [2]	Effect upon acetic acid-induced writhing [1]	Effect upon carrageenan-induced paw edema [5]	Effect upon carrageenan-induced thermal hyperalgesia [5]	also measured
O=C(Nc1cccnc1)N1CCC(Cc2cccc(Oc3ccc(C(F)(F)F)cn3)c2)CC1 [PF-3845, reference compound]								Antinociceptive effects in the acetic acid test after pretreatment with CB1 antagonist rimonabant ([1]; rimonabant 3 mg/kg 10 min before inhibitor): blocked
CCc1c(-c2ccccc2)c(-c2ccccc2)nn1-c1ccccc1-c1cccc(OCC(=O)O)c1 [BMS309403, reference compound]								Cytotoxicity _50 values [8]: 11.3 ± 0.9 µM
CCCCCCC(CCCCCCCCCCC(=O)O)N(C)c1ccc([N+](=O)[O-])c2nonc12 (centres unmarked) [NBD-stearate, 12-N-methyl-(7-nitrobenz-2-oxa-1,3-diazo)aminostearicacid]								Kd [9]: 160 nM; Kd [10]: 180 nM; Kd [11]: 220 nM

Continued, in another order:

Ki [3] [nM]	Ki [4] [nM]	Ki [6] [nM]	SMILES	Effect upon first phase of formalin-induced nociception [2]	Effect upon acetic acid-induced writhing [1]	Effect upon carrageenan-induced paw edema [5]	Effect upon carrageenan-induced thermal hyperalgesia [5]	also measured
6100 ± 500	2600 ± 1100	3300 ± 700	O=C(Nc1cccc2ccccc12)C1C(c2ccccc2)C(C(=O)Nc2cccc3ccccc23)C1c1ccccc1 (centres unmarked) [SBFI62, 2,4-diphenylcyclobutane-1,3-dicarboxylic acid di-1-naphthyl amide]	without effect	without effect	without effect	without effect	Effect upon second phase of formalin-induced nociception ([2]; second phase ∼15–45 min): without effect
600 ± 100	3500 ± 300	1300 ± 200	O=C(O)C1C(c2ccccc2)C(C(=O)Oc2ccc3ccccc3c2)C1c1ccccc1 (stereo not drawn) [SBFI50, alpha-2,4-diphenylcyclobutane-1,3-dicarboxylic acid mono-2-naphthyl ester]	reduced	without effect	reduced	reduced	Effect on mechanical thresholds in CCI rats ([7]; 1 and 4 h): Neither compound altered; Effect on thermal hyperalgesia in CCI rats ([7]; measured 1 and 4 h post-injection): without effect
300	> 10000	1600	O=C(O)C1C(c2ccccc2)C(C(=O)Nc2cccc3ccccc23)C1c1ccccc1 (stereo not drawn) [SBFI60, alpha-2,4-diphenylcyclobutane-1,3-dicarboxylic acid mono-1-naphthyl amide]	reduced	without effect	without effect	without effect	
